Results taken from paper PMC3580847 (Biochemistry, 2013).

Experiments:
Assay type in all cases: cell-based, Human
[1] = test system: U2OS cells; assay: Proliferation assay; conditions: 2 h treatment in DMEM pH 6.0 or 7.4, MTS at 48 h
[2] = test system: M4A4 cells; assay: Proliferation assay; conditions: 2 h treatment in DMEM pH 6.0 or 7.4, MTS at 48 h
[3] = test system: MDA-MB-231 cells; assay: Proliferation assay; conditions: 2 h treatment in DMEM pH 6.0 or 7.4, MTS at 48 h
[4] = test system: HeLa cells

Row | Compound | inhibition of cell proliferation / toxicity [1] | inhibition of cell proliferation / toxicity ([1]; listed as Amanitin) | inhibition of cell proliferation / toxicity [2] | inhibition of cell proliferation / toxicity ([2]; listed as Amanitin) | inhibition of cell proliferation / toxicity [3] | inhibition of cell proliferation / toxicity ([3]; listed as Amanitin) | plasma membrane staining with AnnexinV-FITC [4]
1 | CC[C@H](C)[C@@H]1NC(=O)CNC(=O)[C@@H]2Cc3c([nH]c4cc(O)ccc34)[S@+]([O-])C[C@H](NC(=O)CNC1=O)C(=O)N[C@@H](CC(N)=O)C(=O)N1C[C@H](O)C[C@H]1C(=O)N[C@@H]([C@@H](C)[C@@H](O)CO)C(=O)N2 [amanitin, α-Amanitin] | no toxicity was observed | no effect on proliferation | no toxicity was observed | no effect on proliferation | no toxicity was observed | no effect on proliferation | –
2 | CN[C@@H]1C[C@H]2O[C@@](C)([C@@H]1OC)n1c3ccccc3c3c4c(c5c6ccccc6n2c5c31)C(=O)NC4 [staurosporine] | – | – | – | – | – | – | stained with AnnexinV-FITC
